Assays:
[1] = system: MCF-7/ADR (adriamycin-resistant); assay: In vitro sensitivity, sulforhodamine B cytotoxicity assay, MCF-7/ADR (Table 2); type: cell-based, human; conditions: Homo sapiens, NCI/ADR-RES; 72-hour incubation; averaged from two separate experiments
[2] = system: OVCAR-3 human ovarian cancer; assay: s.c. OVCAR-3 tumor, i.v. treatment, tumor volume (FIG. 7); type: in vivo, mice
Procedure: OVCAR-3 human ovarian cancer.
The tumor volume (mm^3) from tumor measurement was calculated: (Length * (Width/2)^2 * π). Mice were sacrificed when the average tumor volume of the group reached 1500 mm^3.

[3] = in vivo; conditions: female, CDF1, mouse, plasma, intravenous, 25 mg/kg
Procedure: (§2) Control mice received an equivalent concentration of Cremophor® EL and ethanol (in PBS) only. At 1, 4, 8, 24 or 48 hr after injection mice were sacrificed and blood was collected via heart puncture into 1 cc syringes containing 0.05 mL of a 0.129M Sodium citrate solution (Baxter, N.J.). Samples were centrifuged at 10,000 ×g for 3 min and plasma removed. Extraction of test materials from plasma was done by adding an equal volume of acetonitrile containing 2C12-HT, 50 μg/ml, as an internal standard, and vortexing vigorously for 30 sec. Samples were then centrifuged for 3 min at 10,000 ×g and supernatant and drug levels determined via HPLC as described previously.

[4] = system: OVCAR-3 human ovarian cancer; assay: i.p. OVCAR-3 tumor, i.p. treatment, survival
Procedure: C.B-17 SCID female mice were injected i.p. with 5×10^6 OVCAR-3 human ovarian cancer cells (day 0). […] Note that long-term survivors (mice that survived through day 300 after cell inoculation) were not included in mean, median, or % ILS calculations.

[5] = system: HT-29 human colon carcinoma cells; assay: In vitro sensitivity, sulforhodamine B cytotoxicity assay, HT-29 (Table 2); type: cell-based; conditions: Homo sapiens, HT-29; 72-hour incubation; averaged from two separate experiments
[6] = High sensitivity differential scanning calorimetry on phosphocholine bilayers; type: physicochemical; conditions: DMPC, DPPC and DSPC bilayers, as high as 9.1 mol % (Lipid/Drug, 10:1)
Description: High sensitivity differential scanning calorimetry (DSC) was used to examine the effect of addition of taxol and its acylated derivatives on the thermotropic phase properties of phosphocholine bilayers of saturated 1, 2-dimyristoyl-sn-glycero-3-phosphocholines (DMPC), 1,2-dipalmitoyl-sn-glycero-3-phosphocholines (DPPC), and 1,2-distearoyl-sn-glycero-3-phosphocholines (DSPC). Likewise, three acylated taxol prodrugs were varied in chain lengths from six, twelve, to sixteen carbons.

[7] = system: CDF1 mice; assay: In vivo toxicity, i.v. x 5, non-tumor bearing mice; conditions: 30 days observation
Procedure: (§1) A separate group (n=5) was injected with concentrations of Cremophor® EL and ethanol (in PBS) equivalent to the highest concentration of the test treatment. Mortality was recorded daily and body weights taken at least twice weekly for an observation period of 30 days.

[8] = system: CDF1 mice; assay: In vivo toxicity, i.p. x 5, non-tumor bearing mice; conditions: 30 days observation
Procedure: as §1

[9] = In vivo toxicity, i.p. x 5, non-tumor bearing mice; conditions: CDF1, mouse, in vivo, ip; i.p. once daily for five consecutive days; read-out: maximum tolerated i.p. dose (MTD, highest dose with no deaths)
Procedure: as §1

[10] = system: A549 cancer cells; assay: cells; conditions: Homo sapiens, A549, 72 h, read-out: GI50 ± S.D. A549
Procedure: Briefly, 96-well microtiter plates were inoculated (100 μL/well) with 5×10^3 (A549) or 7.5×10^3 (OVCAR-3) cells/well, in RPMI-1640 supplemented with 10% FBS (growth media). The plates were incubated for 24 hr at 37° C., 100% humidity and 5% CO2. At 24 hours, growth media (100 μL) was added to designated “time zero” plates. Similarly, serial dilutions of drug or vehicle (in media) were added (100 μL aliquots) to the test and vehicle control wells at twice the predetermined highest concentration. There were triplicate wells on each plate and duplicate plates (total 6 wells) for each drug concentration. The test plates were incubated as above for 72 hr. Cells (including time zero plates) were then fixed with 50 μL of 50% trichloroacetic acid (TCA) (w:v) for adherent cells or 80% TCA for suspended cells, and plates refrigerated at 4° C. for 1 hr. The supernatant was discarded (suspended cell plates were first centrifuged) and the wells rinsed six times with tap water and air-dried. One hundred microliters of 0.4% SRB in 1% acetic acid were added to each well and the plates were incubated under ambient (RT) conditions for 10 min. Unbound stain was removed by rinsing the wells three times with 1% acetic acid. The plates were then air-dried for 24 hr. The bound stain was solubilized with 100 μL of 10 mM Tris buffer and the optical density was read spectrophotometrically at 490 nm (Microplate Reader Model 3550-UV, Bio-Rad, Hercules, Calif.). Percent growth was calculated as follows: (T-T0) / (C-T0)×100; where (T)=mean optical density of treated wells at a given drug concentration, (T0)=mean optical density of time zero wells, and (C)=mean optical density of control wells.

[11] = system: MCF-7 human breast carcinoma; assay: In vitro sensitivity, sulforhodamine B cytotoxicity assay, MCF-7 (Table 2); type: cell-based; conditions: Homo sapiens, MCF7; 72-hour incubation; averaged from two separate experiments
[12] = system: A-549 human lung carcinoma; assay: In vitro sensitivity, sulforhodamine B cytotoxicity assay, A-549 (Table 2); type: cell-based; conditions: Homo sapiens, A549; 72-hour incubation; averaged from two separate experiments
Procedure: Briefly, 96-well microtiter plates were inoculated (100 μL/well) with 5×10^3 (A549) or 7.5×10^3 (OVCAR-3) cells/well, in RPMI-1640 supplemented with 10% FBS (growth media). The plates were incubated for 24 hr at 37° C., 100% humidity and 5% CO2. At 24 hours, growth media (100 μL) was added to designated “time zero” plates. Similarly, serial dilutions of drug or vehicle (in media) were added (100 μL aliquots) to the test and vehicle control wells at twice the predetermined highest concentration. […] Cells (including time zero plates) were then fixed with 50 μL of 50% trichloroacetic acid (TCA) (w:v) for adherent cells or 80% TCA for suspended cells, and plates refrigerated at 4° C. for 1 hr. […] The plates were then air-dried for 24 hr.

[13] = system: OVCAR-3 cancer cells; assay: cells; conditions: Homo sapiens, OVCAR-3, 72 h, read-out: GI50 ± S.D. OVCAR-3
Procedure: Briefly, 96-well microtiter plates were inoculated (100 μL/well) with 5×10^3 (A549) or 7.5×10^3 (OVCAR-3) cells/well, in RPMI-1640 supplemented with 10% FBS (growth media). The plates were incubated for 24 hr at 37° C., 100% humidity and 5% CO2. At 24 hours, growth media (100 μL) was added to designated “time zero” plates. Similarly, serial dilutions of drug or vehicle (in media) were added (100 μL aliquots) to the test and vehicle control wells at twice the predetermined highest concentration. There were triplicate wells on each plate and duplicate plates (total 6 wells) for each drug concentration. The test plates were incubated as above for 72 hr. Cells (including time zero plates) were then fixed with 50 μL of 50% trichloroacetic acid (TCA) (w:v) for adherent cells or 80% TCA for suspended cells, and plates refrigerated at 4° C. for 1 hr. […] The bound stain was solubilized with 100 μL of 10 mM Tris buffer and the optical density was read spectrophotometrically at 490 nm (Microplate Reader Model 3550-UV, Bio-Rad, Hercules, Calif.). Percent growth was calculated as follows: (T-T0) / (C-T0)×100; where (T)=mean optical density of treated wells at a given drug concentration, (T0)=mean optical density of time zero wells, and (C)=mean optical density of control wells.

[14] = system: OVCAR-3 human ovarian cancer; assay: i.p. OVCAR-3 tumor, i.v. treatment, survival (FIG. 6); type: in vivo, mice
Procedure: Mice were observed daily for mortality and % ILS was calculated as described above.

[15] = system: A549 human lung cancer; assay: s.c. A549 tumor, i.v. treatment, tumor volume (FIG. 8); type: in vivo, mice; conditions: i.v., independent of the dose schedule; BrC16HT 12.5-25 mg/kg, Taxol® 25 mg/kg
Description: Mice were sacrificed when the average tumor volume of the group reached 1500 mm^3.

[16] = system: CDF1 female mice; assay: Acute toxicity of liposomal paclitaxel or paclitaxel derivative given intraperitoneally; conditions: liposomes, i.p.
Procedure: Moreover, liposomes containing either paclitaxel or a 2′-(2-bromo) hydrophobic paclitaxel derivative (containing either a six-carbon (C-6), C-8, C-12, C-14 or C-16 acyl chain at the 2′ position) were administered, intraperitoneally in 5 doses, to SCID (severe combined inimunodeficiency) mice bearing a human ovarian cancer (OvCar 3), at a dose of 12.5 mg paclitaxel per kg or a dose of 50 mg paclitaxel derivative per kg.
CDF1 female mice, 5 or 10 mice per group, were intraperitoneally administered either paclitaxel-, 2′-C6-paclitaxel derivative-, or 2′-C16-paclitaxel derivative-containing liposomes, in a single dose, or 5 doses, of either 12.5, 25, 50, 100, 200, 300. 400 or 500 mg of paclitaxel or paclitaxel derivative per kg of mouse body weight.

[17] = system: A549 human NSCLC; assay: i.p. A549 tumor, i.p. treatment, survival; conditions: i.p. on days 1, 3, 5, 7 & 9
Procedure: Note that long-term survivors (mice that survived through day 300 after cell inoculation) were not included in mean, median, or % ILS calculations.
SCID mice (6/group) were injected with 5×10^6 A549 human NSCLC cells i.p. (day 0).

[18] = Pharmacokinetic, plasma levels after i.v. administration; conditions: 25 mg/kg i.v., CDF1 female mice, 8 hours
Procedure: as §2

[19] = treated days 20, 22, 24, 26 and 28 i.p., 25 mg/kg
[20] = treated days 20, 22, 24, 26 and 28 i.p., 25 mg/kg, long-term survivors not included

## CC(=O)O[C@H]1C(=O)[C@@]2(C)[C@H]([C@H](OC(=O)c3ccccc3)[C@]3(O)C[C@H](OC(=O)[C@H](O)[C@@H](NC(=O)c4ccccc4)c4ccccc4)C(C)=C1C3(C)C)[C@]1(OC(C)=O)CO[C@@H]1C[C@@H]2O [Paclitaxel, reference compound]
[1]
  GI50: 4170 nM
[2]; 25 mg/kg i.v. on days 1, 3, 5, 7 & 9
  delaying tumor growth: ~59 days
[2]; i.v. on days 1, 3, 5, 7 & 9, BrC16HT 12.5-25 mg/kg, Taxol® 25 mg/kg
  tumor growth vs. control: significantly (p<0.05 vs. control) inhibited the tumor growth
[3]
  concentration at 1 h: 14400 ± 4600 ng/mL
  concentration at 4 h: < 5000 ng/mL
[4]; delayed i.p. schedule (Table 9b)
  long-term survivors (LTS), in words: no long-term survivors were observed
[4]; early (days 1, 3, 5, 7 & 9) and delayed (days 20, 22, 24, 26 & 28) i.p. treatment schedules
  survival of tumor-bearing mice vs. control: significantly prolonged (p<0.05 vs. control) the survival
[4]; [19]
  % ILS: 84%
  LTS/n (mice that survived to 300 days): 0/10
[4]; [20]
  MST Days ± SEM (n): 188 ± 15 (10) Days
  Median survival time: 185 days
[5]
  GI50: < 1.4 nM
[6]
  perturbation of PC bilayers (DSC): little or no effect on the perturbation of all three PC bilayers
[7]; i.v. days 1 through 5, 12.5 mg/kg
  Number of Mice surviving/Total: 10/10
[7]; i.v. days 1 through 5, 25 mg/kg
  Number of Mice surviving/Total: 8/10
[7]; i.v. days 1 through 5, 37.5 mg/kg
  Number of Mice surviving/Total: 0/7
[7]; i.v. days 1 through 5, 50 mg/kg
  Number of Mice surviving/Total: 0/8
[8]; i.p. days 1 through 5, 12.5 mg/kg
  Number of Mice surviving/Total: 20/20
[8]; i.p. days 1 through 5, 25 mg/kg
  Number of Mice surviving/Total: 10/20
[8]; i.p. days 1 through 5, 37.5 mg/kg
  Number of Mice surviving/Total: 0/10
[8]; i.p. days 1 through 5, 50 mg/kg
  Number of Mice surviving/Total: 0/25
[9]
  MTD at 5 days: 12.5 to 25 mg/kg
[10]
  GI50: 3.3 ± 0.8 nM
[11]
  GI50: < 1.5 nM
[12]
  GI50: 2.3 nM
[13]
  GI50: 1.9 ± 0.03 nM
[14]; 12.5 mg/kg i.v. on days 20, 22, 24, 26 & 28
  medium survival times: 170 days
[14]; 12.5 or 25 mg/kg i.v. on days 1, 3, 5, 7, 9, 42, 44, 46, 48 & 50 (FIG. 6a)
  survival time vs. control: significantly (p<0.05 vs. control) increased the survival time
[14]; i.v. on days 20, 22, 24, 26 & 28, BrC16HT 12.5 or 25 mg/kg, Taxol® 12.5 mg/kg (FIG. 6b)
  survival time vs. control: significantly (p<0.05 vs. control) increased the survival time
[15]
  tumor growth vs. control: significantly (p <0.05 vs. control) inhibited the tumor growth
[16]; five doses of 12.5 mg/kg
  number of mice that died within the first 14 days post-injection/total: 0/10
[16]; five doses of 25 mg/kg
  number of mice that died within the first 14 days post-injection/total: 10/10
[16]; five doses of 50 mg/kg
  number of mice that died within the first 14 days post-injection/total: 10/10
[16]; single dose 12.5 mg/kg
  number of mice that died within the first 14 days post-injection/total: 0/10
[16]; single dose 25 mg/kg
  number of mice that died within the first 14 days post-injection/total: 0/10
[16]; single dose 50 mg/kg
  number of mice that died within the first 14 days post-injection/total: 0/10
[16]; single dose 100 mg/kg, 100 mg/kg
  number of mice that died within the first 14 days post-injection/total: 5/5
[16]; single dose 100 mg/kg, listed as paclitaxel, 100 mg/kg
  number of mice that died within the first 14 days post-injection/total: all five of the mice
[17]
  survival time of tumor-bearing mice vs. control: significantly (p<0.05 vs. control) increased the survival time
[18]
  Plasma level of paclitaxel ± SEM: none detectable

Reference: US6482850B2, “Hydrolysis-promoting hydrophobic taxane derivatives” (priority 1995, dated 2002)
